One experiment addresses T1, human catalytic MMP9 (Homo sapiens, UniProt P14780).
T1 construct: purchased BioMol SE-244
In words: Catalytic MMP9 enzyme assay (fluorogenic peptide P-126). The experiment is classed as biochemical.

Experiment [1] deals with T2, full-length proMMP9(1-707) activation by catalytic MMP3 (Homo sapiens, UniProt P14780, R574P). In words: proMMP9/MMP3 P126 Activation Assay. The experiment is classed as biochemical. The conditions noted are these: proMMP9 from HEK293 cells. Also on record: made in house; host or cells: E. coli (MMP3).
Description: The assay buffer employed was 50 mM Hepes, pH 7.5, 10 mM CaCl2, 0.05% Brij-35. DMSO was included at a final concentration of 2%, arising from the test compound addition. […] The reaction volume was 50 μL. […] Initial velocities were plotted by use of a four-parameter logistics equation (GraphPad Prism® software) for determination of IC50.
The target of experiment [2] is T3, proMMP9(67-444;ΔFnII) (SEQ ID NO:5) (Homo sapiens, UniProt P14780, DEL216-390).
T3 construct: amino acid pairs including: 29-215/391-444, 67-215/391-444, and 20-215/391-445, respectively; start methionine (N); made in house; host or cells: E. coli BL21(DE3) RIL
T3 sequence (P14780 with tags, fused parts or gaps DEL216-390): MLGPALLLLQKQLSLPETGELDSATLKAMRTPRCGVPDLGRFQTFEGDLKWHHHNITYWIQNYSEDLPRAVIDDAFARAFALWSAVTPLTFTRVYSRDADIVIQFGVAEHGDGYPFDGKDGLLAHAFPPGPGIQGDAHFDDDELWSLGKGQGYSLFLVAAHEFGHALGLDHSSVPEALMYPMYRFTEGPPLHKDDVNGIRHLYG
Briefly: ThermoFluor binding assay with proMMP9(67-444;ΔFnII). A digest of the protocol:
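Thermal shift (ThermoFluor) with 1,8-ANS dye; protein desalted by buffer exchange before use. Samples heated 40 to 90 °C at 1 °C/min, excitation 380-400 nm, emission 500±25 nm. Binding fitted using unfolding thermodynamic parameters from DSC and ThermoFluor dosing data.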

The target of experiment [3] is T4, proMMP9(20-445;ΔFnII) (SEQ ID NO:6) (Homo sapiens, UniProt P14780, DEL216-390).
T4 construct: amino acid pairs including: 29-215/391-444, 67-215/391-444, and 20-215/391-445, respectively; start methionine (N); made in house; host or cells: E. coli BL21(DE3) RIL
T4 sequence (P14780 with tags, fused parts or gaps DEL216-390): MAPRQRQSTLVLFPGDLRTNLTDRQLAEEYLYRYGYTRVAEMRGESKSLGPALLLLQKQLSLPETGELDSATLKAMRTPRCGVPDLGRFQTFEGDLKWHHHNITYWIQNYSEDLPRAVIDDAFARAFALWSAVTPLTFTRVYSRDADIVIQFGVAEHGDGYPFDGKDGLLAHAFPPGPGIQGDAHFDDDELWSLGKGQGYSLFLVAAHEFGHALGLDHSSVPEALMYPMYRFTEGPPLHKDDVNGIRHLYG
Briefly: ThermoFluor binding assay with proMMP9(20-445;ΔFnII). An outline of the steps: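 Thermal shift with 1,8-ANS dye, heating from 40 to 90 °C at 1 °C/min. Fluorescence excited at 380–400 nm and read at 500±25 nm. Protein was buffer-exchanged by desalting, and binding fitted using heat capacity and thermodynamic parameters from DSC and ThermoFluor dosing data, with DMSO reference wells.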
(In general: Differential scanning fluorimetry follows unfolding on heating by fluorescence.)

Experiment [4] concerns the target T5, human catalytic MMP3, MMP3(100-265) (Homo sapiens, UniProt P08254).
T5 construct: Catalytic MMP3 was amino acids 100-265 of human MMP3 from UniProtKB/Swiss-Prot P08254; 6x-Histidine tag (C); made in house; host or cells: E. coli
In words: Catalytic MMP3 enzyme assay (fluorogenic peptide M2110). The experiment is classed as biochemical. As for the experimental part:
Compounds were assessed for inhibition of human catalytic MMP3, MMP3(100-265) (SEQ ID NO:8), using a peptide (Mca-RPKPVE-Nva-WRK(Dnp)-NH2, Bachem M2110) that fluoresces upon cleavage by catalytic MMP3. […] The reaction volume was 100 μL. […] Final concentrations employed were 20 nM catalytic MMP3 and 20 μM M2110 substrate.

In experiment [5] the target is T2, full-length proMMP9(1-707) activation by catalytic MMP3. In words: ProMMP9/MMP3 DQ Gelatin Activation Assay.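 Note: readout is fluorescence of quenched fluorescein gelatin cut by activated MMP9, 30 min activation at 37 °C, inhibition relative to DMSO-only controls with EDTA as blank.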 The experiment is classed as biochemical. Also on record: made in house; host or cells: COS-1 (proMMP9); E. coli (MMP3). The following applies: proMMP9 from COS-1 cells; read-out: ProMMP9/MMP3 DQ gel, IC50.
Description: Compounds were assessed for inhibition of proMMP9 activation by catalytic MMP3 using a quenched fluorescein gelatin substrate (DQ gelatin, Invitrogen D12054) that fluoresces upon cleavage by activated MMP9. The assay buffer employed was 50 mM Hepes, pH 7.5, 10 mM CaCl2, 0.05% Brij-35. DMSO was included at a final concentration of 0.2%, arising from the test compound addition. […] Test compounds in DMSO were diluted 250-fold in assay buffer at 4× the final concentration. The reaction volume was 12 μL, and all reactions were conducted in triplicate. […] The plate was sealed and incubated for 30 min at 37° C. […] Immediately following the 30 min incubation, 4 μL of 40 μg/ml DQ gelatin substrate was added (freshly diluted in assay buffer), and incubated for 10 min at room temperature. […] Reactivity of residual MMP3 towards DQ gelatin was minimal under these conditions. Percent inhibition of test compounds were determined from suitable positive (DMSO only in assay buffer) and negative (EDTA added prior to reaction initiation) controls. Plots of % inhibition vs. test compound concentration were fit to a four-parameter logistics equation (GraphPad Prism® software) for determination of IC50.

SMILES strings stand for the structures. pIC50, pKd: −log10 of the molar value.

In general, pKd refers to the negative decadic logarithm of the Kd, by convention in mol/L. A lower pKd goes with a large Kd.

T5 sequence (P08254 with tags, fused parts or gaps): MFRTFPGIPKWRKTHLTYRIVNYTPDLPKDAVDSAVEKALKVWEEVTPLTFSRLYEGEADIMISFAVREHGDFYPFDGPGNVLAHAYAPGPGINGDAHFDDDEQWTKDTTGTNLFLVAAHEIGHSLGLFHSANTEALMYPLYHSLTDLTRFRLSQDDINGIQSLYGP
T1 sequence (P14780 107-445 limits assumed): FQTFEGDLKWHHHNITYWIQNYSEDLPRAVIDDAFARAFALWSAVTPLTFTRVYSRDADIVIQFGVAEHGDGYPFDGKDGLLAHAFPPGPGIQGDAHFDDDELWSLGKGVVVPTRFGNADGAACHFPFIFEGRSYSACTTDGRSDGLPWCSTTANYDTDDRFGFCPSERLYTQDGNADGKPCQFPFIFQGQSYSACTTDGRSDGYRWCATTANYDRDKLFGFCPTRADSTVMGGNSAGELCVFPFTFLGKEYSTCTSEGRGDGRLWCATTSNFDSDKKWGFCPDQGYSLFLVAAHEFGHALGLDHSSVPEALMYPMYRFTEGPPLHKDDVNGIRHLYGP
T2 sequence (P14780 20-707 R574P): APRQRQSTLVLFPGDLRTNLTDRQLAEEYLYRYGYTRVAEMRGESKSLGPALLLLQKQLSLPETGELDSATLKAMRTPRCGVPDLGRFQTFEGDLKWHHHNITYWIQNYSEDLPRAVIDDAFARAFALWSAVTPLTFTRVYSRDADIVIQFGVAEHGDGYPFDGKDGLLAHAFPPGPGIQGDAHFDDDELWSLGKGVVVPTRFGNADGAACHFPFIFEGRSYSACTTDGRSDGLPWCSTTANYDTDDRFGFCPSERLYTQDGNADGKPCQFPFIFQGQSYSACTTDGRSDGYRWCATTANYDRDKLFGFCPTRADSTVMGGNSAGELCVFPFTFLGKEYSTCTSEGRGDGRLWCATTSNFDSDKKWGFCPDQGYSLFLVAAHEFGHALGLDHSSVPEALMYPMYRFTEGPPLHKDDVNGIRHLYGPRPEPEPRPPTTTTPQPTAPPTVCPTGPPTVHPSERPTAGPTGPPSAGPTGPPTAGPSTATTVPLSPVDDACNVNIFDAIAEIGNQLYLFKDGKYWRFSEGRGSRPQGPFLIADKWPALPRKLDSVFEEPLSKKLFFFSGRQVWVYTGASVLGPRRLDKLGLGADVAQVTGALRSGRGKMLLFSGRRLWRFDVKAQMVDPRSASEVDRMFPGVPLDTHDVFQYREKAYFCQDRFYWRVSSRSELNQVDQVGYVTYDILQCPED
Description for human catalytic MMP9: The assay buffer employed was 50 mM Hepes, pH 7.5, 10 mM CaCl2, 0.05% Brij-35. DMSO was included at a final concentration of 2%, arising from the test compound addition. The reaction volume was 100 μL. […] Initial velocities were plotted by use of a four-parameter logistics equation (GraphPad Prism® software) for determination of IC50, if required.

Take `COc1ccc(F)cc1Nc1nc(-c2sc(N)nc2C)cs1` [Example 4, N^2-(5-Fluoro-2-methoxy-phenyl)-4′-methyl-[4,5′]bithiazolyl-2,2′-diamine.HBr]: the pIC50 is less than 4.30 at human catalytic MMP9, 5.82 in experiment [1] and less than 4.30 in experiment [4]. The pKd in experiment [2] was 6.60; in experiment [3], 5.77.

As for `COc1ccc(Cl)cc1Nc1nc(-c2sc(NC(C)=O)nc2C)cs1` [Example 59, N-[2-(5-Chloro-2-methoxy-phenylamino)-4′-methyl-[4,5′]bithiazolyl-2′-yl]-acetamide], the pIC50 at human catalytic MMP9 is less than 4.30; in experiment [1], 6.28; in experiment [5] it was 6.47; in experiment [4], less than 4.30. Besides, the pKd in experiment [2] was 6.23; in experiment [3], 4.53.

As for `COc1ccc(Cl)cc1Nc1nc(-c2sc(N)nc2C)cs1` [Example 67, N^2-(5-Chloro-2-methoxy-phenyl)-4′-methyl-[4,5′]bithiazolyl-2,2′-diamine], the pIC50 was less than 4.30 at human catalytic MMP9, 5.68 in experiment [1] and less than 4.30 in experiment [4]. The pKd in experiment [2] is 6.50; in experiment [3], 5.61.

These data come from US20120302573A1, “METHODS OF INHIBITING PRO MATRIX METALLOPROTEINASE ACTIVATION” (priority 2011, published 2012).
